Earlier results, collected in patent publication US20090011059A1, “Ginger Extract For Inhibiting Human Drug Transporters” (priority 2005, published 2009).

Assays:
[1] = in vivo

Row | oral availability | increase of the plasma exposure of cyclosporin A [1] | Compound
1 | 42% |  | CC[C@@]1(O)C(=O)OCc2c1cc1n(c2=O)Cc2cc3c(CN(C)C)c(O)ccc3nc2-1 [Topotecan]
2 | 16% |  | C=CC[C@@H]1/C=C(\C)C[C@H](C)C[C@H](OC)[C@H]2O[C@@](O)(C(=O)C(=O)N3CCCC[C@H]3C(=O)O[C@H](/C(C)=C/[C@@H]3CC[C@@H](O)[C@H](OC)C3)[C@H](C)[C@@H](O)CC1=O)[C@H](C)C[C@@H]2OC [Tacrolimus]
3 | 4% |  | CC[C@H](C)C(=O)O[C@H]1C[C@@H](C)C=C2C=C[C@H](C)[C@H](CC[C@@H]3C[C@@H](O)CC(=O)O3)[C@H]21 [Lovastatin]
4 | 8% |  | CC(=O)O[C@@]12CO[C@@H]1C[C@H](O)[C@@]1(C)C(=O)[C@H](O)C3=C(C)[C@@H](OC(=O)[C@H](O)[C@@H](NC(=O)OC(C)(C)C)c4ccccc4)C[C@@](O)([C@@H](OC(=O)c4ccccc4)[C@H]21)C3(C)C [Docetaxel]
5 |  | roughly two-fold | vitamin E
6 | 15% |  | CO[C@H]1C[C@@H]2CC[C@@H](C)[C@@](O)(O2)C(=O)C(=O)N2CCCC[C@H]2C(=O)O[C@H]([C@H](C)C[C@@H]2CC[C@@H](O)[C@H](OC)C2)CC(=O)[C@H](C)/C=C(\C)[C@@H](O)[C@@H](OC)C(=O)[C@H](C)C[C@H](C)/C=C/C=C/C=C/1C [Sirolimus]
